From US10278942B2 (PELOTON THERAPEUTICS, INC., priority 2015, dated 2019)

Tests used:
[1] = target: T1, HIF-2α HIS TAG-PASB Domain (Homo sapiens, UniProt Q99814); experiment: HIF-2α Scintillation Proximity Assay (SPA); assay type: binding; conditions: read-out: Scintillation Proximity Assay IC50
T1 construct: 100 nM HIF-2α HIS TAG-PASB Domain
Method in brief: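 IC50 values rest on percent inhibition, where the sample signal is scaled between high and low controls. Wells contain about 100 μL: compound dispensed as 2 μL of DMSO solution, 88 μL protein-probe mix and 10 μL of beads.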

786-O-Hif-Luc cells = experiment: Luciferase Assay (HIF responsive elements reporter); conditions: read-out: Mean Luciferase EC50 (nM), 786-O-Hif-Luc cells
Protocol: A pool of infected cells were then selected against 2 μg/mL of puromycin (P8833, Sigma) for 10 days followed by limited dilution to select single clones. […] Each concentration was tested in triplicate. After about 24 hours, luciferase activity was determined using ONE-Glo Luciferase Assay Reagent (E6110, Promega) following the manufacturer's recommended procedure. EC50 were calculated using Dotmatics software.

786-O cells = experiment: VEGF ELISA Assay; assay type: cell-based; conditions: Homo sapiens, 786-0
Protocol: Each concentration was plated in duplicate. About 20 hours later, medium was removed by suction and each well was supplied with 180 μL of growth medium. About 20 μl freshly-made 10× compound stocks were added to each well. […] The EC50 was calculated by GraphPad Prism using the dose-response-inhibition (four parameter) equation. The cell-seeded plate was then subjected to CellTiter-Glo luminescence cell viability assay (Promega) by adding 50 μL of Celltiter Glo reagent into each well and shaking the plate for 8 minutes at 550 rpm (Thermomixer R, Eppendorf) then the luminescence signal immediately read in a plate reader (3 second delay, 0.5 second/well integration time, Synergy 2 multi Detection Microplate reader).

T1 sequence (Q99814 240-350 limits assumed): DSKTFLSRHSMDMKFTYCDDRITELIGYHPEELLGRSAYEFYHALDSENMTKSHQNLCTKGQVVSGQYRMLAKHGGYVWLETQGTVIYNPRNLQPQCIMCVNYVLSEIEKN

Structure (SMILES)	IC50 [1] [nM]	EC50 (786-O-Hif-Luc cells) [nM]	EC50 (786-O cells) [nM]
O=S(=O)(c1ccc(OC2CC(F)(F)C2)c2c1[C@H](O)C(F)(F)C2)C(F)(F)F [Compound 572]	< 50	< 50	< 50
CS(=O)(=O)c1ccc(OC2CC(F)(F)C2)c2c1[C@H](O)C(F)(F)[C@@H]2F [Compound 574, (1S,3R)-4-(3,3-difluorocyclobutoxy)-2,2,3-trifluoro-7-(methylsulfonyl)-2,3-dihydro-1H-inden-1-ol]	< 50	50 to 249	50 to 249
O=S(=O)(CF)c1ccc(OC2CC(F)(F)C2)c2c1[C@H](O)C(F)(F)[C@@H]2F [Compound 576, (1S,3R)-4-(3,3-difluorocyclobutoxy)-2,2,3-trifluoro-7-((fluoromethyl)sulfonyl)-2,3-dihydro-1H-inden-1-ol]	< 50	< 50	50 to 249
CS(=O)(=O)c1ccc(OC2CC(F)(F)C2)c2c1[C@H](O)[C@H](F)[C@@H]2F [Compound 577]	< 50	250 to 1000	250 to 1000
O=S(=O)(CF)c1ccc(OC2CC(F)(F)C2)c2c1[C@H](O)[C@H](F)[C@@H]2F [Compound 578]	< 50	50 to 249	50 to 249
O[C@H]1c2c(C(F)(F)F)ccc(OCC(F)F)c2CC1(F)F [Compound 579]	< 50	< 50	< 50
O=S(=O)(c1ccc(OC2CCCC2)c2c1C(O)C(F)(F)C2)C(F)(F)F (stereo not drawn) [Compound 605]	< 50	< 50	50 to 249
CC(C)(C#N)COc1ccc(S(=O)(=O)C(F)(F)F)c2c1CC(F)(F)C2O (stereo not drawn) [Compound 610]	< 50	50 to 249	50 to 249
O=S(=O)(c1ccc(OC2CCCCC2)c2c1C(O)C(F)(F)C2)C(F)(F)F (stereo not drawn) [Compound 617]	< 50	< 50	< 50
N#CC1(COc2ccc(S(=O)(=O)C(F)(F)F)c3c2CC(F)(F)C3O)CC1 (stereo not drawn) [Compound 620]	50 to 249	50 to 249	50 to 249
CC(C)Oc1ccc(S(=O)(=O)C(F)(F)F)c2c1CC(F)(F)[C@H]2O [Compound 654]	< 50	< 50	< 50
CCCOc1ccc(S(=O)(=O)C(F)(F)F)c2c1CC(F)(F)[C@H]2O [Compound 655]	< 50	< 50	< 50
O=S(=O)(c1ccc(OCC2CC2)c2c1[C@H](O)C(F)(F)C2)C(F)(F)F [Compound 656]	< 50	< 50	< 50
O=S(=O)(c1ccc(OC2CCC2)c2c1[C@H](O)C(F)(F)C2)C(F)(F)F [Compound 657]	< 50	< 50	< 50
N#CC1(COc2ccc(S(=O)(=O)C(F)(F)F)c3c2CC(F)(F)[C@H]3O)CC1 [Compound 658]	< 50	< 50	< 50
COC[C@@H](C)Oc1ccc(S(=O)(=O)C(F)(F)F)c2c1CC(F)(F)[C@H]2O [Compound 659]	< 50	50 to 249	50 to 249
O=S(=O)(c1ccc(OCCF)c2c1[C@H](O)C(F)(F)C2)C(F)(F)F [Compound 706]	50 to 249	50 to 249	50 to 249
CC(C)COc1ccc(S(=O)(=O)C(F)(F)F)c2c1CC(F)(F)[C@H]2O [Compound 709]	< 50	< 50	< 50
CCCCOc1ccc(S(=O)(=O)C(F)(F)F)c2c1CC(F)(F)[C@H]2O [Compound 710]	< 50	< 50	50 to 249
O=S(=O)(c1ccc(OCCCF)c2c1[C@H](O)C(F)(F)C2)C(F)(F)F [Compound 712]	< 50	< 50	< 50
O=S(=O)(c1ccc(OCC2COC2)c2c1[C@H](O)C(F)(F)C2)C(F)(F)F [Compound 713]	< 50	50 to 249	50 to 249
